Assay results published in US8993574B2, “Pyrrole antifungal agents” (F2G Ltd, priority 2008, dated 2015).
In brackets after ≈: the same amount, converted by molar mass.

How the values were obtained:
Format in all cases: cell-based
[1] = system: Aspergillus niger; assay: MIC, YAG medium; settings: Aspergillus niger, 24 h at 35° C, MIC banded into grades, read-out: MIC grade, A. niger
Protocol: (§1) Between 1 and 5 mgs of compound were accurately weighed out into a sterile Eppendorf tube. The compound was dissolved in DMSO to give a solution containing 5 mg/mL. Tubes were stored at −20° C. until required.
(§2) On the day of testing thawed solutions were vortex mixed to ensure homogeneity. 30 μL of solution was removed and added to 570 μL of sterile water in a separate sterile Eppendorf. The thoroughly mixed solution was used to prepare a series of doubling dilutions in water, in a deep well plate. Thirteen replicate plates were prepared using a Minitrak by aspirating 20 μL from each well into eleven clear polystyrene 96 well plates.
(§3) Spores of Aspergillus spp. (Aspergillus fumigatus [two strains], Aspergillus terreus [two strains], Aspergillus niger and Aspergillus flavus) were harvested from cultures grown on Sabarauds agar for 5 days, and resuspended in PBS/Tween 80 to approx 1×10^7 cfu/mL. Each organism suspension was diluted in YAG medium (1% glucose, 1% ammonium chloride and 0.5% yeast extract) to 0.5−2×10^4 cfu/mL. 80 μL of an organism suspension was added to each well of the plate containing drug dilutions.
(§4) This produced MIC plates with a drug range 50-0.05 mg/L and organism inocula of 1−2×10^4 cfu/mL for Aspergillus spp. All plates were incubated for 24 h at 35° C. Growth was assessed by monitoring the optical density at 485 nm for each well. The MIC of a compound is the lowest drug concentration that inhibits growth of an organism by >70% compared with a drug free control. MICs are recorded as mg/L. In cases where the MIC of an organism is […] mg/L the MIC is repeated using a concentration range of 0.5-0.0005 mg/L.
(§5) The following organisms were tested: Aspergillus flavus, Aspergillus fumigatus AF293 and AF210, Aspergillus niger, Aspergillus terreus AT4 and AT49, Candida albicans, Candida glabrata, Candida krusei, Candida parapsilosis and Candida tropicalis.

[2] = system: Aspergillus terreus AT49; assay: MIC, YAG medium; settings: Aspergillus terreus, 24 h at 35° C, MIC banded into grades, read-out: MIC grade, A. terreus 49
Protocol: as §1, §2, §3, §4, §5

[3] = system: Aspergillus fumigatus AF210; assay: MIC, YAG medium; settings: Aspergillus fumigatus, 24 h at 35° C, MIC banded into grades, read-out: MIC grade, A. fumigatus 210
Protocol: as §1, §2, §3, §4, §5

[4] = system: Aspergillus terreus AT4; assay: MIC, YAG medium; settings: Aspergillus terreus, 24 h at 35° C, MIC banded into grades, read-out: MIC grade, A. terreus
Protocol: as §1, §2, §3, §4, §5

[5] = system: Aspergillus flavus; assay: MIC, YAG medium; settings: 24 h at 35° C, MIC banded into grades; for MIC: Aspergillus flavus, 24 h, read-out: MIC grade, A. flavus
Protocol: as §1, §2, §3, §4, §5

[6] = system: Aspergillus fumigatus AF293; assay: MIC, YAG medium; settings: Aspergillus fumigatus, 24 h at 35° C, MIC banded into grades, read-out: MIC grade, A. fumigatus
Protocol: as §1, §2, §3, §4, §5

[7] = system: Aspergillus niger; assay: MIC, RPMI medium; settings: Aspergillus niger, MIC banded into grades, read-out: MIC grade, A. niger
Protocol: as §1, §2
(§6) Assays were also performed in RPMI medium for both Aspergillus spp. (strains described above) and Candida spp. (Candida albicans, Candida glabrata, Candida krusei, Candida parapsilosis and Candida tropicalis). To perform MIC tests in this medium, dilutions of compounds are prepared in microtitre plates as described above. Fungal strains to be tested are grown and harvested in an identical manner to that described above, and each organism suspension was diluted in RPMI medium, containing 2% glucose and 0.135 M MOPS buffer (pH 7.0) to 0.5-2×10^4 cfu/mL, rather than in YAG medium. 80 μL of an organism suspension was added to each well of the plate containing drug dilutions.
(§7) This produced MIC plates with a drug range 50-0.05 mg/L and organism inocula of 1−2×10^4 cfu/mL. All plates were incubated for 24-48 h at 35° C. Growth was assessed by monitoring the optical density at 485 nm for each well. The MIC of a compound is the lowest drug concentration that inhibits growth of an organism by >80% compared with a drug free control.
as §5

[8] = system: Aspergillus terreus AT49; assay: MIC, RPMI medium; settings: Aspergillus terreus, AT49, MIC banded into grades, read-out: MIC grade, A. terreus 49
Protocol: as §1, §2, §6, §7, §5

[9] = system: Aspergillus fumigatus AF210; assay: MIC, RPMI medium; settings: Aspergillus fumigatus, AF210, MIC banded into grades, read-out: MIC grade, A. fumigatus 210
Protocol: as §1, §2, §6, §7, §5

[10] = system: Aspergillus terreus AT4; assay: MIC, RPMI medium; settings: Aspergillus terreus, AT4, MIC banded into grades, read-out: MIC grade, A. terreus
Protocol: as §1, §2, §6, §7, §5

[11] = system: Aspergillus flavus; assay: MIC, RPMI medium; settings: Aspergillus flavus, MIC banded into grades, read-out: MIC grade, A. flavus
Protocol: as §1, §2, §6, §7, §5

[12] = system: Aspergillus fumigatus AF293; assay: MIC, RPMI medium; settings: Aspergillus fumigatus, AF293, MIC banded into grades, read-out: MIC grade, A. fumigatus
Protocol: as §1, §2, §6, §7, §5

SMILES | MIC [1] [µg/mL] | MIC [2] [µg/mL] | MIC [3] [µg/mL] | MIC [4] [µg/mL] | MIC [5] [µg/mL] | MIC [6] [µg/mL] | MIC [7] [µg/mL] | MIC [8] [µg/mL] | MIC [9] [µg/mL] | MIC [10] [µg/mL] | MIC [11] [µg/mL] | MIC [12] [µg/mL] | MIC grade, A. flavus [5]
Cc1cc(C)nc(N2CCN(c3ccc(NC(=O)C(=O)c4c(-c5ccccc5)cc(C)n4C)cc3O)CC2)c1 [Example 22, 2-(1,5-Dimethyl-3-phenyl-1H-pyrrol-2-yl)-N-{4-[4-(4,6-dimethyl-pyridin-2-yl)-piperazin-1-yl]-3-hydroxy-phenyl}-2-oxo-acetamide] | < 1 | < 1 | < 1 | < 1 | < 1 | < 1 | < 1 | < 1 | < 1 | < 1 | < 1 | < 1 | 
Cc1cc(-c2ccccc2)c(C(=O)C(=O)Nc2cccc3c2CCO3)n1C [Example 23, N-(2,3-Dihydro-benzofuran-4-yl)-2-(1,5-dimethyl-3-phenyl-1H-pyrrol-2-yl)-2-oxo-acetamide] | < 1 | < 1 | 1 to 10 (≈ 2.77 to 27.7 µM) | < 1 | < 1 | < 1 | 1 to 10 (≈ 2.77 to 27.7 µM) | < 1 | 1 to 10 (≈ 2.77 to 27.7 µM) | < 1 | < 1 | 1 to 10 (≈ 2.77 to 27.7 µM) | 
COCCn1c(C)cc(-c2ccccc2)c1C(=O)C(=O)Nc1ccc(N2CCN(c3cc(C)cc(C)n3)CC2)c(Cl)c1 [Example 24, N-{3-Chloro-4-[4-(4,6-dimethyl-pyridin-2-yl)-piperazin-1-yl]-phenyl}-2-[1-(2-methoxy-ethyl)-5-methyl-3-phenyl-1H-pyrrol-2-yl]-2-oxo-acetamide] | < 1 | < 1 | < 1 | < 1 | < 1 | < 1 | < 1 | > 10 | < 1 | 1 to 10 (≈ 1.71 to 17.1 µM) | 1 to 10 (≈ 1.71 to 17.1 µM) | < 1 | 
COCCn1c(C)cc(C(C)C)c1C(=O)C(=O)Nc1ccc(N2CCN(c3cc(C)cc(C)n3)CC2)cc1 [Example 25, N-{4-[4-(4,6-Dimethyl-pyridin-2-yl)-piperazin-1-yl]-phenyl}-2-[3-isopropyl-1-(2-methoxy-ethyl)-5-methyl-1H-pyrrol-2-yl]-2-oxo-acetamide] | 1 to 10 (≈ 1.93 to 19.3 µM) | 1 to 10 (≈ 1.93 to 19.3 µM) | < 1 | 1 to 10 (≈ 1.93 to 19.3 µM) | 1 to 10 (≈ 1.93 to 19.3 µM) | < 1 | 1 to 10 (≈ 1.93 to 19.3 µM) | > 10 | 1 to 10 (≈ 1.93 to 19.3 µM) | > 10 | > 10 | > 10 | 
COCCn1c(C)cc(-c2ccccc2)c1C(=O)C(=O)Nc1ccc(N2CCN(c3cc(C)cc(C)n3)CC2)cc1Cl [Example 26, N-{2-Chloro-4-[4-(4,6-dimethyl-pyridin-2-yl)-piperazin-1-yl]-phenyl}-2-[1-(2-methoxy-ethyl)-5-methyl-3-phenyl-1H-pyrrol-2-yl]-2-oxo-acetamide] | < 1 | < 1 | < 1 | < 1 |  | < 1 | < 1 | > 10 | < 1 | > 10 | > 10 | < 1 | 1 (a grade of 1 represents an MIC of greater than 10 mg/L)
CCOCCn1c(C)cc(-c2ccccc2)c1C(=O)C(=O)Nc1ccc(N2CCN(c3cc(C)cc(C)n3)CC2)cc1 [Example 27, N-{4-[4-(4,6-Dimethyl-pyridin-2-yl)-piperazin-1-yl]-phenyl}-2-[1-(2-ethoxy-ethyl)-5-methyl-3-phenyl-1H-pyrrol-2-yl]-2-oxo-acetamide] | 1 to 10 (≈ 1.77 to 17.7 µM) | 1 to 10 (≈ 1.77 to 17.7 µM) | < 1 | 1 to 10 (≈ 1.77 to 17.7 µM) | > 10 | < 1 | 1 to 10 (≈ 1.77 to 17.7 µM) | > 10 | 1 to 10 (≈ 1.77 to 17.7 µM) | > 10 | > 10 | 1 to 10 (≈ 1.77 to 17.7 µM) | 
